{
  "source": "ChEMBL document CHEMBL2406918",
  "about": "“Controlling persister cells of Pseudomonas aeruginosa PDO300 by (Z)-4-bromo-5-(bromomethylene)-3-methylfuran-2(5H)-one” (2013)",
  "key": {"Pseudomonas aeruginosa [1]": {"system": "Pseudomonas aeruginosa", "experiment": "Bactericidal activity against Pseudomonas aeruginosa PDO300 persister cells at 5 to 50 ug/ml after 2 hrs by drop plate method", "format": "functional, organism-based"}, "Pseudomonas aeruginosa [2]": {"system": "Pseudomonas aeruginosa", "experiment": "Antibacterial activity against Pseudomonas aeruginosa PDO300 assessed as reduction in viable persister cells in planktonic population of biofilm after 18 hrs by drop plate method", "format": "functional, organism-based"}, "Pseudomonas aeruginosa [3]": {"system": "Pseudomonas aeruginosa", "experiment": "Antibacterial activity against Pseudomonas aeruginosa PDO300 assessed as effect on total number of suspended planktonic cells at 60 ug/ml after 18 hrs by drop plate method relative to control", "format": "functional, organism-based"}, "Pseudomonas aeruginosa [4]": {"system": "Pseudomonas aeruginosa", "experiment": "Antibacterial activity against Pseudomonas aeruginosa PDO300 assessed as reduction in persistence after 12 hrs by drop plate method", "format": "functional, organism-based"}, "Pseudomonas aeruginosa [5]": {"system": "Pseudomonas aeruginosa", "experiment": "Antibacterial activity against Pseudomonas aeruginosa PDO300 assessed as viable biofilm cells at 30 ug/ml after 24 hrs by drop plate method (reference value: 0.0005 +/- 0.0008%)", "format": "functional"}, "Pseudomonas aeruginosa [6]": {"system": "Pseudomonas aeruginosa", "experiment": "Bactericidal activity against Pseudomonas aeruginosa PDO300 persister cells at 5 ug/ml after 2 hrs by drop plate method", "format": "functional"}, "Pseudomonas aeruginosa [7]": {"system": "Pseudomonas aeruginosa", "experiment": "Antibacterial activity against Pseudomonas aeruginosa PDO300 assessed as viable persister cells at 30 ug/ml after 24 hrs by drop plate method", "format": "functional, organism-based"}, "Pseudomonas aeruginosa [8]": {"system": "Pseudomonas aeruginosa", "experiment": "Antibacterial activity against Pseudomonas aeruginosa PDO300 assessed as reduction in viable persister cells in planktonic population of biofilm at 60 ug/ml after 18 hrs by drop plate method relative to control", "format": "functional"}, "Pseudomonas aeruginosa [9]": {"system": "Pseudomonas aeruginosa", "experiment": "Antibacterial activity against Pseudomonas aeruginosa PDO300 assessed as reduction in viable persister cells in biofilm at 20 to 60 ug/ml after 18 hrs by drop plate method relative to control", "format": "functional"}, "Pseudomonas aeruginosa [10]": {"system": "Pseudomonas aeruginosa", "experiment": "Antibacterial activity against Pseudomonas aeruginosa PDO300 assessed as reduction in biofilm formation at 60 ug/ml after 18 hrs by drop plate method relative to control", "format": "functional", "set-up": "scale not given: the % may be the effect or the level left"}, "Pseudomonas aeruginosa [11]": {"system": "Pseudomonas aeruginosa", "experiment": "Antibacterial activity against Pseudomonas aeruginosa PDO300 assessed as reduction in biofilm formation after 18 hrs by drop plate method", "format": "functional, organism-based"}, "Escherichia coli": {"system": "Escherichia coli", "experiment": "Antibacterial activity against Escherichia coli RP437 assessed as effect on persister cells at pH > 7", "format": "functional, organism-based"}, "Pseudomonas aeruginosa [12]": {"system": "Pseudomonas aeruginosa", "experiment": "Antibacterial activity against Pseudomonas aeruginosa PDO300 assessed as growth inhibition at 5 to 30 ug/mL after 12 hrs", "format": "functional, organism-based"}, "Pseudomonas aeruginosa [13]": {"system": "Pseudomonas aeruginosa", "experiment": "Antibacterial activity against Pseudomonas aeruginosa PDO300 assessed as reduction in planktonic cells in biofilm after 18 hrs by drop plate method", "format": "functional, organism-based"}, "Pseudomonas aeruginosa [14]": {"system": "Pseudomonas aeruginosa", "experiment": "Antibacterial activity against Pseudomonas aeruginosa PDO300 assessed as reduction in viable biofilm cells after 24 hrs by drop plate method", "format": "functional, organism-based"}, "Pseudomonas aeruginosa [15]": {"system": "Pseudomonas aeruginosa", "experiment": "Antibacterial activity against Pseudomonas aeruginosa PDO300 assessed as cell death in planktonic phase at 30 ug/ml after 24 hrs by drop plate method", "format": "functional, organism-based"}, "Pseudomonas aeruginosa [16]": {"system": "Pseudomonas aeruginosa", "experiment": "Antibacterial activity against Pseudomonas aeruginosa PDO300 assessed as reduction in persistence at 30 ug/ml after 12 hrs by drop plate method relative to control", "format": "functional", "set-up": "scale not given: the % may be the effect or the level left"}, "Pseudomonas aeruginosa [17]": {"system": "Pseudomonas aeruginosa", "experiment": "Antibacterial activity against Pseudomonas aeruginosa PDO300 assessed as reduction in persister cells in biofilm after 18 hrs by drop plate method", "format": "functional, organism-based"}, "Pseudomonas aeruginosa [18]": {"system": "Pseudomonas aeruginosa", "experiment": "Antibacterial activity against Pseudomonas aeruginosa PDO300 assessed as reduction in persistence up to 30 ug/ml after 5 hrs by drop plate method", "format": "functional, organism-based"}, "Pseudomonas aeruginosa [19]": {"system": "Pseudomonas aeruginosa", "experiment": "Bactericidal activity against Pseudomonas aeruginosa PDO300 persister cells at 50 ug/ml after 2 hrs by drop plate method", "format": "functional, organism-based"}, "Pseudomonas aeruginosa [20]": {"system": "Pseudomonas aeruginosa", "experiment": "Antibacterial activity against Pseudomonas aeruginosa PDO300 assessed as cell viability up to 30 ug/ml after 5 hrs by drop plate method", "format": "functional, organism-based"}, "Pseudomonas aeruginosa [21]": {"system": "Pseudomonas aeruginosa", "experiment": "Antibacterial activity against Pseudomonas aeruginosa PDO300 assessed as persister cell death in viable biofilm at 5 to 30 ug/mL after 24 hrs by drop plate method", "format": "functional, organism-based"}},
  "note": "Calls of active or inactive are those of the source. The rule behind the calls is not given here.",
  "data": [
    {"smiles": "CC1=C(Br)/C(=C/Br)OC1=O", "values": [
      {"measurement": "Activity", "setting": "Pseudomonas aeruginosa [1]", "result": "Active"},
      {"measurement": "Activity", "setting": "Pseudomonas aeruginosa [2]", "result": "Dose-dependent effect"},
      {"measurement": "Activity", "setting": "Pseudomonas aeruginosa [3]", "result": "inactive"},
      {"measurement": "Activity", "setting": "Pseudomonas aeruginosa [4]", "result": "Dose-dependent effect"},
      {"measurement": "Activity", "setting": "Pseudomonas aeruginosa [5]", "result": 0.01, "unit": "%"},
      {"measurement": "Activity", "setting": "Pseudomonas aeruginosa [6]", "result": 80.9, "unit": "%"},
      {"measurement": "Activity", "setting": "Pseudomonas aeruginosa [7]", "result": "Active"},
      {"measurement": "Activity", "setting": "Pseudomonas aeruginosa [8]", "result": 96.5, "unit": "%"},
      {"measurement": "Activity", "setting": "Pseudomonas aeruginosa [9]", "result": 98.3, "unit": "%"},
      {"measurement": "Activity", "setting": "Pseudomonas aeruginosa [10]", "result": 91.6, "unit": "%"},
      {"measurement": "Activity", "setting": "Pseudomonas aeruginosa [11]", "result": "Dose-dependent effect"},
      {"measurement": "Activity", "setting": "Escherichia coli", "result": "Active"},
      {"measurement": "growth inhibition (GI)", "setting": "Pseudomonas aeruginosa [12]", "result": "inactive"},
      {"measurement": "Activity", "setting": "Pseudomonas aeruginosa [13]", "result": "inactive"},
      {"measurement": "Activity", "setting": "Pseudomonas aeruginosa [14]", "result": "Dose-dependent effect"},
      {"measurement": "Activity", "setting": "Pseudomonas aeruginosa [15]", "result": "Active"},
      {"measurement": "Activity", "setting": "Pseudomonas aeruginosa [16]", "result": 88.5, "unit": "%"},
      {"measurement": "Activity", "setting": "Pseudomonas aeruginosa [17]", "result": "Dose-dependent effect"},
      {"measurement": "Activity", "setting": "Pseudomonas aeruginosa [18]", "result": "inactive"},
      {"measurement": "Activity", "setting": "Pseudomonas aeruginosa [19]", "result": "Active"},
      {"measurement": "Activity", "setting": "Pseudomonas aeruginosa [20]", "result": "inactive"},
      {"measurement": "Activity", "setting": "Pseudomonas aeruginosa [21]", "result": "Active"}
    ]}
  ]
}
